Experimental data reported in patent US20060293351A1, “Promotion of wound healing” (priority 1999, published 2006).

Tests used:
[1] = test system: T50 bladder carcinoma bearing mice; test: Wound healing in mice implanted with T50 bladder carcinoma tumors; type: in vivo, C3H mice; conditions: diet containing 10 mg/kg or 5 mg/kg, 3 days prior to and 2 weeks after cell injection
Protocol: Similar visual results were obtained with mice implanted with T50 bladder carcinoma tumors (FIG. 4). C3H mice were divided into two groups of 6 mice each. The experimental group received a diet containing either 10 mg/kg or 5 mg/kg of Halofuginone 3 days prior to the injection of T50 bladder carcinoma cells and during 2 weeks after. […] The right side received 0.4*10^5 cells, and the left side received 2*10^5 cells. The experiment ended at day 17. FIG. 4 is a photograph of representative bladder carcinoma bearing mice which were untreated (top) or treated (bottom) with Halofuginone. […] Halofuginone was clearly able to promote wound healing in mice implanted with bladder carcinoma tumors.

[2] = test system: incision at tumor implantation site; test: Wound healing in nude mice implanted with C6 rat glioma tumors; type: in vivo, CD1-nude mice
Protocol: Tumors from C6 rat glioma cells were prepared and implanted in nude mice. Certain mice received Halofuginone, either orally or through i.p. (intra-peritoneal) administration. […] The experimental method was as follows. C6 rat glioma cells were cultured in DMEM supplemented with 5% FCS, 50 units/ml penicillin, 50 micrograms/ml streptomycin and 125 […]. Aggregation of cells into small spheroids of about 150 microns was initiated by replating cells from confluent cultures onto agar-coated bacteriological plates. After 4-5 days in culture, the suspension was transferred to a 250 ml spinner flask (Bellco, USA), and the medium was changed every other da for 30-40 days. All culture operations were performed at 37° C. and 5% CO2. Other conditions were as previously reported (Abramovitch et al., Br. J. Cancer, 77:440-447, 1998; Abramovitch et al., Cancer Res., 55:1956-62, 1995). For the implantation of the cells, male CD1-nude mice, two months old and 30 g body weight, were anesthetized. A single tumor, about 1 mm in diameter, was implanted in each mouse stubcutaneously in the lower back at the site of a 4 mm incision, using a Teflon tubing, as reposed previously (Abramovitch et al., Br. J. Cancer, 77:440-447, 1998). The incision was formed with fine surgical scissors and closed with an adhesive bandage. The mice were then divided into six groups. One group received Halofuginone by oral administration as previously described. Four groups received different concentrations of Halofuginone through i.p. injections every other day (0.1, 0.5, 2 and 4 micrograms of Halofuginone per injection). One group received sham injections (no Halofuginone). MRI microimaging of the implanted tumor was performed on a horizontal 4.7 T Bruker-Biospec spectrometer using an actively RF decoupled surface coil, 2 cm in diameter, and a bird-cage transmission coil, as reported previously (Abramovitch et al., Br. J. Cancer, 77:440-447, 1998; and Abramovitch et al., Magn. Reson. Med., 39:813-824, 1998). Mice were anesthetized and placed supine with the tumor located at the center of the surface coil. Gradient echo images were acquired with a slice thickness of 0.5 mm, TE of 10 ms, TR of 230 ms and 256×256 pixels matrix resulting in in-plane resolution of 110 microns. Growth of the capillary bed was reflected by reduction of the mean intensity at a region of interest of 1 mm surrounding the tumor (Abramovitch et al., Br. J. Cancer, 77:440-447, 1998; and Abramovitch et al., Magn. Reson. Med., 39:813-824, 1998). At the end of the experimental period, the mice were sacrificed, and sections were obtained and prepared as previously described above. […] Such a result is surprising since wounds located less than 1 mm from a tumor implantation site have been previously shown not to heal rapidly.

collagen α1(I) gene = test: Collagen α1(I) gene expression at the stricture site (in situ hybridization, image analysis); type: in vivo, rats; conditions: after coagulation treatment, 3 biopsies for each type of treatment
Protocol: The experiments were performed as follows. First, urethral catherization was performed on tile rats with a 23 G Quik-Cath (Baxter, Ireland) sheath. A spinal needle was inserted into the sheath, and was used to apply a coagulation current at a level of 10 W to the outer end of the needle for 1 second at three locations, 8, 10 and 12 mm from the meatus, in order to produce urethral strictures. Halofuginone was given for 7 days starting at the day of stricture formation, either orally at concentrations of 1 ppm and 5 ppm in the diet, or by injection of 0.03% Halofuginone dissolved in 2% lignocaine directly into the urethra once a day. After 21 days, the rats were sacrificed and the sutures were reopened to determine the level of urethral stricture formation, at which time biopsies of the tissue were taken. For hybridization with the genetic probe, the sections were deparafinized in xylene, rehydrated through a graded series of ethanol solutions, rinsed in distilled water for 5 minutes and then incubated in 2×SSC at 70° C. for 30 minutes. The sections were then rinsed in distilled water and treated with pronase, 0.125 mg/ml in 50 mM Tris-HCl, 5 mM EDTA, pH 7.5, for 10 minutes. Alter digestion, the slides were rinsed with distilled water, post-fixed in 10% formalin in PBS and blocked in 0.2% glycine. […] Alkaline phosphatase activity was detected in the sections as previously described [Knopov. […]

[3] = orally or 4 micrograms per i.p. injection
[4] = particularly at the highest dose (4 micrograms per i.p. injection)

In the case of `O=C(CC1NCCC[C@H]1O)Cn1cnc2cc(Br)c(Cl)cc2c1=O` (stereo partly drawn) [Halofuginone], the wound healing [1] is reported as “greater wound healing”, the “complete re-epitheliazation (mice per group)” value ([2]; 4 micrograms per i.p. injection every other day) is reported as 4 out of 5 and the “complete re-epitheliazation (mice per group)” value ([2]; administered orally) is reported as 4 out of 5. For the same compound, the “re-epitheliazation (mice per group)” value ([2]; all other groups (0.1, 0.5, 2 micrograms per i.p. injection; sham)) was 1 out of 5, the “scarring at the site of the wound” value [2, 3] was “no scarring” and the “wound healing despite presence of tumor” value [2, 3] was “significantly improved wound healing”. The collagen content [2, 4] was “decreased”, the “expression of the collagen α1(I) gene” value [2, 4] was “decreased” and the “reduction in the expression of the collagen α1(I) gene” value (collagen α1(I) gene) was 5.3 fold.
